What all share (type): functional
Experiment [1] has as its system Ostrinia nubilalis. The experiment in a line: Antifeedant activity against Ostrinia nubilalis (European corn borer) larvae assessed as amount excreted at 0.40% of diet dry weight after 5 days relative to control.
In experiment [2] the test system is Ostrinia nubilalis. The experiment in a line: Effect on growth of male Ostrinia nubilalis (European corn borer) larvae assessed as adult emergence at 0.01% of diet dry weight after 6 days relative to control.
For experiment [3], the system named is Ostrinia nubilalis. The experiment in a line: Effect on growth of male Ostrinia nubilalis (European corn borer) larvae assessed as pupal duration at 0.01% of diet dry weight after 6 days relative to control.
For experiment [4], the system named is Ostrinia nubilalis. The experiment in a line: Effect on growth of female Ostrinia nubilalis (European corn borer) larvae assessed as adult emergence at 0.10% of diet dry weight after 6 days relative to control.
Experiment [5] has as its system Ostrinia nubilalis. The experiment in a line: Effect on growth of female Ostrinia nubilalis (European corn borer) larvae assessed as pupal duration at 0.001% of diet dry weight after 6 days relative to control.
Experiment [6] deals with Ostrinia nubilalis. The experiment is described as follows: Effect on growth of female Ostrinia nubilalis (European corn borer) larvae assessed as adult emergence at 0.01% of diet dry weight after 6 days relative to control.
Experiment [7] deals with Ostrinia nubilalis. The experiment is described as follows: Effect on growth of male Ostrinia nubilalis (European corn borer) larvae assessed as adult emergence at 0.001% of diet dry weight after 6 days relative to control.
Experiment [8] deals with Ostrinia nubilalis. The experiment is described as follows: Effect on growth of female Ostrinia nubilalis (European corn borer) larvae assessed as pupal duration at 0.10% of diet dry weight after 6 days relative to control.
For experiment [9], the system named is Ostrinia nubilalis. The experiment in a line: Antifeedant activity against Ostrinia nubilalis (European corn borer) larvae assessed as amount excreted at 0.10% of diet dry weight after 5 days relative to control.
Experiment [10] has as its system Ostrinia nubilalis. The experiment is described as follows: Antifeedant activity against Ostrinia nubilalis (European corn borer) larvae assessed as feeding rate at 0.40% of diet dry weight after 5 days relative to control.
Experiment [11] concerns Ostrinia nubilalis. The experiment in a line: Antifeedant activity against Ostrinia nubilalis (European corn borer) larvae assessed as amount of weight gain by the insect at 0.80% of diet dry weight after 5 days relative to control.
The subject of experiment [12] is Ostrinia nubilalis. The experiment is described as follows: Antifeedant activity against Ostrinia nubilalis (European corn borer) larvae assessed as excretion rate at 0.10% of diet dry weight after 5 days relative to control.
For experiment [13], the system named is Ostrinia nubilalis. The experiment is described as follows: Antifeedant activity against Ostrinia nubilalis (European corn borer) larvae assessed as amount of weight gain by the insect at 0.10% of diet dry weight after 5 days relative to control.
Experiment [14] has as its system Ostrinia nubilalis. The experiment in a line: Effect on growth of male Ostrinia nubilalis (European corn borer) larvae assessed as pupal weight at 0.001% of diet dry weight after 6 days relative to control.
The subject of experiment [15] is Ostrinia nubilalis. The experiment is described as follows: Effect on growth of male Ostrinia nubilalis (European corn borer) larvae assessed as larval duration at 1% of diet dry weight after 6 days relative to control.
Experiment [16] relates to Ostrinia nubilalis. The experiment in a line: Effect on growth of female Ostrinia nubilalis (European corn borer) larvae assessed as larval duration at 1% of diet dry weight after 6 days relative to control.
Experiment [17] concerns Ostrinia nubilalis. The experiment is described as follows: Antifeedant activity against Ostrinia nubilalis (European corn borer) larvae assessed as amount of food consumed at 0.40% of diet dry weight after 5 days relative to control.
In experiment [18] the test system is Ostrinia nubilalis. The experiment in a line: Antifeedant activity against Ostrinia nubilalis (European corn borer) larvae assessed as amount excreted at 0.60% of diet dry weight after 5 days relative to control.
Experiment [19] concerns Ostrinia nubilalis. The experiment is described as follows: Effect on growth of female Ostrinia nubilalis (European corn borer) larvae assessed as pupal weight at 0.10% of diet dry weight after 6 days relative to control.
The test system of experiment [20] is Ostrinia nubilalis. The experiment is described as follows: Antifeedant activity against Ostrinia nubilalis (European corn borer) larvae assessed as amount of food consumed at 0.60% of diet dry weight after 5 days relative to control.
For experiment [21], the system named is Ostrinia nubilalis. The experiment in a line: Effect on growth of male Ostrinia nubilalis (European corn borer) larvae assessed as adult emergence at 1% of diet dry weight after 6 days relative to control.

Regarding `CC(C)=CCc1c2c(c3occ(-c4ccc(O)c(O)c4)c(=O)c3c1O)C=CC(C)(C)O2` [POMIFERIN], the Activity in the experiment with Ostrinia nubilalis [1] is listed as 5.4%; in the experiment on Ostrinia nubilalis [2], 67%; in the experiment on Ostrinia nubilalis [4], 67%; in the experiment with Ostrinia nubilalis [6], 54%; in the experiment on Ostrinia nubilalis [7], 78%; in the experiment with Ostrinia nubilalis [9], 30.4%. For the same compound, the Activity in the experiment on Ostrinia nubilalis [10] is 29%; in the experiment on Ostrinia nubilalis [11] it was 36.5%; with Ostrinia nubilalis [12], 0%; with Ostrinia nubilalis [13] it was 38.1%; in the experiment on Ostrinia nubilalis [14], 76 mg; in the experiment on Ostrinia nubilalis [17], 34.2%. The Activity in the experiment on Ostrinia nubilalis [18] amounted to 16.1%; in the experiment on Ostrinia nubilalis [19], 100 mg; in the experiment with Ostrinia nubilalis [20], 38.5%; in the experiment with Ostrinia nubilalis [21], 60%. For the same compound, the Time in the experiment with Ostrinia nubilalis [3] came to 7.2 days; in the experiment on Ostrinia nubilalis [5], 6.7 days; in the experiment with Ostrinia nubilalis [8] it was 6.3 days; in the experiment with Ostrinia nubilalis [15] it was 11.2 days; with Ostrinia nubilalis [16], 12.9 days.
Turning to `CC(C)=CCc1c2c(c3occ(-c4ccc(O)cc4)c(=O)c3c1O)C=CC(C)(C)O2` [OSAJIN], the Activity in the experiment on Ostrinia nubilalis [1] is listed as 17.6%; in the experiment on Ostrinia nubilalis [2] it was 50%; with Ostrinia nubilalis [4] it was 50%; with Ostrinia nubilalis [6], 44%; in the experiment on Ostrinia nubilalis [7], 71%; in the experiment on Ostrinia nubilalis [9] it was -1.4%. The Activity was 23% in the experiment with Ostrinia nubilalis [10]; 10.5% in the experiment on Ostrinia nubilalis [11]; -1% in the experiment on Ostrinia nubilalis [12]; -2% with Ostrinia nubilalis [13]; 76 mg in the experiment with Ostrinia nubilalis [14]; 30.5% in the experiment with Ostrinia nubilalis [17]. Further, the Activity in the experiment with Ostrinia nubilalis [18] stood at 10.8%; in the experiment on Ostrinia nubilalis [19], 102 mg; in the experiment with Ostrinia nubilalis [20] it was 36%; in the experiment on Ostrinia nubilalis [21] it was 43%. The Time in the experiment with Ostrinia nubilalis [3] was 6.8 days; in the experiment on Ostrinia nubilalis [5], 6.5 days; in the experiment on Ostrinia nubilalis [8], 7.1 days; in the experiment on Ostrinia nubilalis [15], 11.3 days; with Ostrinia nubilalis [16], 12.4 days.
